In US20190262343A1, “WOUND HEALING USING BRAF INHIBITORS” (THE REGENTS OF THE UNIVERSITY OF CALIFORNIA, priority 2016, published 2019):

What was measured:
HEKa cells = assay: Oris cell migration / wound-healing assay with seeder stoppers; type: cell-based, human
2.5 cm dorsal skin wound = assay: Incisional dorsal wound model, wound tensile strength (WTS); type: in vivo, C3Hf/Kam (H2-k) female mice; conditions: for improvement in WTS compared to vehicle-treated controls: topical every other day, seven doses, day 14
Description: The skin wounds were surgically clipped on day 0 and mice were followed until day 14 (FIGS. 5A-5B). […] On day 14, the mice were euthanized and the skin containing the wound was removed and mounted in 20 mm strips with a horizontal wound sample in each strip.

[1] = system: 6-mm round excisional wounds; assay: Excisional skin wound splinting model, wound closure and histology; type: in vivo, Balb/c mice
Description: Dorsal skin wounds from CH3 mice treated with vemurafenib suspension or DMSO in saline control suspension were excised at day 2, 6 and 14. They were fixed in 10% neutral buffered formalin and embedded in paraffin and stained with hematoxylin and eosin (H&E) using standard methods. Balb/c mice were sacrificed at day 2, 6 and 14 with isoflurane overdose. Two 8-mm round pieces of tissue were collected from each Balbc/c mouse containing the whole wound area and the surrounding tissue and skin, cut precisely in half at the midline of the wound and fixed in 1% paraformaldehyde (PFA) for 16-18 hours at 4° C., dehydrated in 70% EtOH, and then paraffin embedded. Sections were cut at 4 μm, deparaffinized with xylene and descendant ethanol, and then incubated in 3% H2O2 for 10 minutes. After a wash in distilled water, the slides were incubated for 25 minutes in citrate buffer pH6 (Invitrogen) at 95° C. using a vegetable steamer. The slides were brought to room temperature, rinsed in PBST (Phosphate Buffered Saline containing 0.05% Tween-20), and then incubated at room temperature with 1:100 anti-mouse Ki-67 antibody (DAKO, Carpinteria, Calif.) for 1 hour and 1:10 phospho-ERK Ab (Cell Signaling), overnight. The Ki67 stained slides were rinsed with PBST and incubated at room temperature with 1:200 polyclonal Rabbit anti-rat immunoglobulin/Biotinylated Ab (Dako, E0468) for 30 minutes. All the slides were rinsed with PBST, and incubated with Dako EnVision+ System-HRP Labelled Polymer Anti-Rabbit (Dako) at room temperature for 30 minutes. After a rinse with PBST, the slides were incubated with DAB (3,3′-Diaminobenzidine) for visualization. Subsequently, the slides were washed in tap water, counterstained with Harris' Hematoxylin, dehydrated in ethanol, and mounted with media. The imaging and quantification of the cell-based immunohistochemistry, was performed with the HALO Next Generation Imaging analysis software (Indica Labs; Corrales, N. Mex.). HALO measures and reports individual cell data maintaining an interactive link between cell metrics and cell imagery. The number of pERK+, Ki67+ and PECAM-1+ cells was automatically counted with the HALO software. Three 20× fields of view from each side of the wound were automatically counted for pERK and Ki67 stains. PECAM-1+ and CD68+ cells were automatically counted on each side of the wound edges where the granulation tissue starts (1 mm length each side) on the excisional wound splinting model, and in the entire wound area on the incisional wound model.

[2] = system: CD68+, IL-6+, COX-2+, PECAM-1+ cells; assay: Immunohistochemistry of incisional wounds (CD68, IL-6, COX-2, PECAM-1); type: in vivo, mice
Description: Dorsal skin wounds from CH3 mice treated with vemurafenib suspension or DMSO in saline control suspension were excised at day 2, 6 and 14. They were fixed in 10% neutral buffered formalin and embedded in paraffin and stained with hematoxylin and eosin (H&E) using standard methods. Balb/c mice were sacrificed at day 2, 6 and 14 with isoflurane overdose. Two 8-mm round pieces of tissue were collected from each Balbc/c mouse containing the whole wound area and the surrounding tissue and skin, cut precisely in half at the midline of the wound and fixed in 1% paraformaldehyde (PFA) for 16-18 hours at 4° C., dehydrated in 70% EtOH, and then paraffin embedded. Sections were cut at 4 μm, deparaffinized with xylene and descendant ethanol, and then incubated in 3% H2O2 for 10 minutes. After a wash in distilled water, the slides were incubated for 25 minutes in citrate buffer pH6 (Invitrogen) at 95° C. using a vegetable steamer. […] The imaging and quantification of the cell-based immunohistochemistry, was performed with the HALO Next Generation Imaging analysis software (Indica Labs; Corrales, N. Mex.). […] The number of pERK+, Ki67+ and PECAM-1+ cells was automatically counted with the HALO software. Three 20× fields of view from each side of the wound were automatically counted for pERK and Ki67 stains. PECAM-1+ and CD68+ cells were automatically counted on each side of the wound edges where the granulation tissue starts (1 mm length each side) on the excisional wound splinting model, and in the entire wound area on the incisional wound model.
To elaborate on the activated pathways associated with the increased presence of wound healing cell subsets at this time point, the genes up-expressed in the vemurafenib-treated wounds were analyzed for enriched GO biological processes 2 fold increase) using ClueGo (Bindea, G. et al., Bioinformatics 25:1091-93 (2009)). […] To confirm these findings, the levels of COX-2+ and IL-6+ cells were quantified by immunohistochemistry. […]

[3] = system: BRAF^V600E mutant melanoma line M249; assay: Soft agar colony forming assay, M249; type: cell-based, human; conditions: 1.5 μM vemurafenib, one week
Description: Twenty four-well plates were covered with 300 μl of serum-free RPMI 1640 (Fisher Scientific, Hampton, N.H.) with 0.6% Noble agar (BD Biosciences, San Jose, Calif.), and incubated at 37° C. overnight, until solid. 300 μl of a suspension of HEKa and M249 cells (15,000 cells/ml) in a 1:1 mixture of growth medium with a concentration of 1.5 μM of vemurafenib and growth factor-reduced matrigel (BD Biosciences) was added to each well. After one week, automated colony quantification was performed using a BioSpot Series 5 UV analyzer.

CCCS(=O)(=O)Nc1ccc(F)c(C(=O)c2c[nH]c3ncc(-c4ccc(Cl)cc4)cc23)c1F [vemurafenib]
proliferative and migratory effects in combination cultures with mitomycin C or NSC295642 (HEKa cells; 1.5 μM, 10 μg/mL mitomycin C or 1 μg/mL NSC295642): induced both proliferative and migratory effects
covering of the center of the wells by proliferating keratinocytes (HEKa cells; 24 hours, control wells devoid of cells in the middle): covered the center of the wells after 24 hours
improvement in WTS compared to vehicle-treated controls (2.5 cm dorsal skin wound; Experiment #1): 52%
improvement in WTS compared to vehicle-treated controls (2.5 cm dorsal skin wound; Experiment #2): 33%
improvement in WTS compared to vehicle-treated controls (2.5 cm dorsal skin wound; Experiment #3): 42%
improvement in WTS vs. vehicle control (2.5 cm dorsal skin wound; separate assay, Experiment #4, p=0.01): 37%
percentage of wound closure compared to vehicle ([1]; 2 mg on days 0, 2 and 4, measured on days 2, 6 and 14): significantly higher percentage of wound closure
re-epithelialization in excisional wounds ([1]; compared to controls): re-epithelialization by day 6
number of pERK+ and Ki67+ cells in the wounds ([1]; day 14, compared to control, p=0.02): statistically significantly higher
skin surface integrity in excisional wounds ([1]; delayed in the control group): re-established by day 14
macrophages (CD68+ cells) in wounds by IHC ([2]; day 6, topical): increase in macrophages
increase of PECAM-1+ cells ([2]; incisional wound model, p=0.02): 65%
IL-6+ and COX-2+ cells ([2]; proliferation stage, day 6): higher IL-6+ and COX-2+ cells
M249 colonies in soft agar [3]: decrease in colonies
